Read-outs that look alike come from different tables or passages of the source.
How the values were obtained:
[1] = tested on: F21T (DNA, G4) GGGCTAGGGCTAGGGCTAGGG; test: FRET melting; conditions: 100 mM K+; 10 mM Tris-HCl, pH 7.35; 2.0 μM compound, 1.0 μM DNA
[2] = tested on: F32T+H20M (DNA, duplex) CCGCATCTCTACATTCAAGAACTGGCATGCGG/GCCAGTTCTTGAATGTAGAG; test: FRET melting; conditions: 100 mM K+; 10 mM Tris-HCl, pH 7.35; 2.0 μM compound, 1.0 μM DNA
[3] = tested on: HL-7702 normal cells; conditions: ref [1], cited from earlier work; for selectivity index factor, IC50 (normal HL-7702 cells)/IC50 (BEL-7404 tumor cells): 48 h; for IC50: HL-7702, 48 h
[4] = tested on: HTG21 (human telomeric) G4; set-up: method as in earlier work; conditions: ref [1], cited from earlier work; for ctDNADC50/HTG21DC50: FID selectivity ratio; for HTG21DC50: FID
[5] = tested on: HTG21 (human telomeric) G4; test: FID assay; type: binding; conditions: for HTG21DC50: FID; for ctDNADC50/HTG21DC50: FID selectivity ratio
Procedure: (§1) We asked whether chiral platinum(II) complexes 4–6 have the ability to bind to G-quadruplex DNA. To address this, FRET assays, CD spectroscopy, G4-FID assays, and fluorescence titration analysis were performed. […] For G4-HTG21, the ^G4DC50 values of complexes 4–6 were 1.23, 1.26 and 0.99 μM, respectively; while, for G4-Pu27, the ^G4DC50 values were 1.01, 0.89, and 0.82 μM, respectively. In addition, the ^ctDNADC50/^G4DC50 ratio of the HTG21 and Pu27 G4s treated with complexes 4–6 was in the range of 50.54-90.65 and 71.56-110.67 folds, respectively. To further evaluate the binding ability of complexes 4–6 to Pu27 and HTG21G4s, CD spectroscopy and fluorescence titration analysis were performed. […] The quenching ability of complexes 4–6 to HTG21 and Pu27 G4 DNA fluorescence can be quantitatively estimated by their respective quenching constant (Kq), which was derived from the Stern-Volmer quenching equation. […] Finally, the selective binding of complexes 4–6 towards G4 DNA was analyzed by FRET-melting assays. […] In contrast, the ΔTm value for the F32T+H20M duplex DNA in the presence of complexes 4–6 was 1.18, 1.34, and 0.78 °C under the same conditions (Figure 4A). Altogether, our data indicated complexes 4–6, especially complex 6, is the best binder to G4 DNA, which caused DNA complex displaying the highest thermodynamic stability. […]
Supplementary Figure 20: FID results onto 4 (A), 5 (B) and 6 (C) toward DNA in sodium cacodylate buffer solution. […]

[6] = tested on: ds26; test: FID assay; type: binding; conditions: for ds26DC50: FID; for ctDNADC50/ds26DC50: FID selectivity ratio
[7] = tested on: HTG21 / G4-HTG21 human telomeric DNA; test: CD spectroscopy; type: binding; set-up: key to Extent of change at 290―295 nm (%): “—”represents no obvious changes in the peaks; conditions: DNA 10 μM, compound 20 μM
Procedure: as §1
Supplementary Figure 21: CD spectra of Human Telomeric DNA (10 μM) in the absence of K+ (10 mM pH 7.35 Tris-
HCl) upon addition of compounds (20 μM). […]
Supplementary Figure 22: CD spectra of Human Telomeric G-quadruplex DNA (10 μM) in the presence of K + (TBS
buffer, containing 1% DMSO, 100 mM KCl, and 10 mM pH 7.35 Tris-HCl) upon addition of compounds (20 μM). […]

[8] = tested on: Pu27 / G4-Pu27 DNA; test: CD spectroscopy; type: binding; set-up: key to Extent of change at 290―295 nm (%): “—”represents no obvious changes in the peaks; conditions: DNA 10 μM, compound 20 μM; for Extent of change at 250―265 nm (%): given with ↓; for Extent of change at 290―295 nm (%): Pu27 (G4-Pu27)
Procedure: We asked whether chiral platinum(II) complexes 4–6 have the ability to bind to G-quadruplex DNA. To address this, FRET assays, CD spectroscopy, G4-FID assays, and fluorescence titration analysis were performed. […] For G4-HTG21, the ^G4DC50 values of complexes 4–6 were 1.23, 1.26 and 0.99 μM, respectively; while, for G4-Pu27, the ^G4DC50 values were 1.01, 0.89, and 0.82 μM, respectively. In addition, the ^ctDNADC50/^G4DC50 ratio of the HTG21 and Pu27 G4s treated with complexes 4–6 was in the range of 50.54-90.65 and 71.56-110.67 folds, respectively. To further evaluate the binding ability of complexes 4–6 to Pu27 and HTG21G4s, CD spectroscopy and fluorescence titration analysis were performed. […] The quenching ability of complexes 4–6 to HTG21 and Pu27 G4 DNA fluorescence can be quantitatively estimated by their respective quenching constant (Kq), which was derived from the Stern-Volmer quenching equation. […] Finally, the selective binding of complexes 4–6 towards G4 DNA was analyzed by FRET-melting assays. […] In contrast, the ΔTm value for the F32T+H20M duplex DNA in the presence of complexes 4–6 was 1.18, 1.34, and 0.78 °C under the same conditions (Figure 4A). Altogether, our data indicated complexes 4–6, especially complex 6, is the best binder to G4 DNA, which caused DNA complex displaying the highest thermodynamic stability.
www.impactjournals.com/oncotarget/ Oncotarget, Supplementary Materials 2017 […]
Supplementary Figure 23: CD spectra of Pu27 DNA (10 μM) in the absence of K+ upon addition of compounds (20 μM).

[9] = G4-HTG21 (presence of K+), given with ↓
[10] = HTG21 (absence of K+), given with ↓

Row | ΔTm [1] [°C] | ΔTm [2] [°C] | Molecule | selectivity index factor, IC50 (normal HL-7702 cells)/IC50 (BEL-7404 tumor cells) [3] | IC50 [3] [µM] | ctDNADC50/HTG21DC50 [4] | HTG21DC50 [4] [µM] | HTG21DC50 [5] [µM] | ctDNADC50/HTG21DC50 [5] | ds26DC50 [6] [µM] | ctDNADC50/ds26DC50 [6] | Extent of change at 250―265 nm (%) [7, 9] [%] | Extent of change at 290―295 nm (%) [7, 9] [%] | Extent of change at 290―295 nm (%) ([7]; HTG21 (absence of K+)) | Extent of change at 250―265 nm (%) [7, 10] [%] | Extent of change at 250―265 nm (%) ([8]; G4-Pu27 (presence of K+)) | Extent of change at 290―295 nm (%) [8] | Extent of change at 250―265 nm (%) ([8]; Pu27 (absence of K+))
1 | 13.19 | 1.18 | O=C(NCC(O)CO)c1cnc2c3c(cccc13)-c1ccccc1C2=O.[Cl-].[Cl-].[Pt+2] (racemic) [ligand 1, R/S-(±)-FOA] | > 5.8 | > 100 | 25.79 | 2.48 |  |  |  |  |  |  |  |  |  |  | 
2 | 12.95 | 1.34 | O=C(NC[C@@H](O)CO)c1cnc2c3c(cccc13)-c1ccccc1C2=O.[Cl-].[Cl-].[Pt+2] [ligand 2, R-(+)-FOA] | > 4.9 | > 100 | 17.78 | 2.25 |  |  |  |  |  |  |  |  |  |  | 
3 | 20.07 | 0.78 | O=C(NC[C@H](O)CO)c1cnc2c3c(cccc13)-c1ccccc1C2=O.[Cl-].[Cl-].[Pt+2] [ligand 3, S-(–)-FOA] | 5.3 | 81.4 ± 2.7 | 48.55 | 1.85 |  |  |  |  |  |  |  |  |  |  | 
4 |  |  | cis-[PtCl2(R-(+)-FOA)] [complex 5] |  |  |  |  | 1.26 | 50.54 | 2.23 | 28.56 | 52.31 | 9.76 | — | 62.38 | 57.01 | — | 62.63
5 |  |  | cis-[PtCl2(R/S-(±)-FOA)] [complex 4] |  |  |  |  | 1.23 | 61.68 | 1.65 | 45.98 | 50.08 | 16.44 | — | 73.35 | 67.47 | — | 72.16
6 |  |  | cis-[PtCl2(S-(–)-FOA)] [complex 6] |  |  |  |  | 0.99 |  | 1.39 | 65.27 | 56.31 | 19.43 | — | 73.98 | 76.23 | — | 80.88
